Measurements taken from patent US7612056B2, “Substituted diaza-spiro-[4.5]-decane derivatives and their use as neurokinin antagonists” (Jenssen Pharmaceutica N.V., priority 2005, dated 2009).

Columns and labels:
NK3 = target: T1, NK3 (Homo sapiens, UniProt P29371); assay: Signal transduction (ST), intracellular Ca++ (FLIPR), NK3; format: cell-based; details: antagonist, Ca++ transient peak, read-out: pIC50 NK3 (converted)
T1 sequence (P29371 1-465): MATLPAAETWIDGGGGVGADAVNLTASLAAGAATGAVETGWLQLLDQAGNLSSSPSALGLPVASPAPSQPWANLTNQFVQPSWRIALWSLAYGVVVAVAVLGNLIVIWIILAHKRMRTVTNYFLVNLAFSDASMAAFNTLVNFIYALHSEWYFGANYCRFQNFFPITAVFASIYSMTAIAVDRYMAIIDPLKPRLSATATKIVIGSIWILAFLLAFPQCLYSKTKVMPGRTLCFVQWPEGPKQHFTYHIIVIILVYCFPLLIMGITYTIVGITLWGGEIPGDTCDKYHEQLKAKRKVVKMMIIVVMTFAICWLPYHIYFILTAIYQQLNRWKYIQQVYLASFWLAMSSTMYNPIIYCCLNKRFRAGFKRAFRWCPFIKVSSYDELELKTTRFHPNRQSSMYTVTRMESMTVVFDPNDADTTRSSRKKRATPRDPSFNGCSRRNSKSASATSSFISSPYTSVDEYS

NK1 = NK1 (Homo sapiens, UniProt P25103); assay: Signal transduction (ST), intracellular Ca++ (FLIPR), NK1; format: cell-based; details: antagonist, Ca++ transient peak, read-out: pIC50 NK1 (converted)
Chain of NK1 (P25103 whole entry): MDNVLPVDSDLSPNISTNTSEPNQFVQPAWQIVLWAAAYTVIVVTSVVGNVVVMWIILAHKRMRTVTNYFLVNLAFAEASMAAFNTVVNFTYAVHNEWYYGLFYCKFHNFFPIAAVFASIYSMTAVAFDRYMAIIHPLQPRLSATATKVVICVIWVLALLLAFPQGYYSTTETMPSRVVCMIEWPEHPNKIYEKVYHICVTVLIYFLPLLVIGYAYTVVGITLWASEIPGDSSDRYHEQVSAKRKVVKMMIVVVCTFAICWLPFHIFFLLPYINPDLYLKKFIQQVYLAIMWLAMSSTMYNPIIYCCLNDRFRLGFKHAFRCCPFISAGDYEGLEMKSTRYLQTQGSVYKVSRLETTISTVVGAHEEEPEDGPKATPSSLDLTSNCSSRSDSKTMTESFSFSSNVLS
Description: This test evaluates in vitro functional NK1 antagonistic activity. For the measurements of intracellular Ca^++ concentrations the cells were grown on 96-well (black wall/transparent bottom) plates from Costar for 2 days until they reached confluence. The cells were loaded with 2 μM Fluo3 in DMEM containing 0.1% BSA and 2.5 mM probenecid for 1 h at 37° C. They were washed 3× with a Krebs buffer (140 mM NaCl, 1 mM MgCl2×6H2O, 5 mM KCl, 10 mM glucose, 5 mM HEPES; 1.25 mM CaCl2; pH 7.4) containing 2.5 mM probenecid and 0.1% BSA (Ca^++-buffer). The cells were preincubated with a concentration range of antagonists for 20 min at RT and Ca^++-signals after addition of the agonists were measured in a Fluorescence Image Plate Reader (FLIPR from Molecular Devices, Crawley, England). The peak of the Ca^++-transient was considered as the relevant signal and the mean values of corresponding wells were analysed as described below.
The sigmoidal dose response curves were analysed by computerised curve-fitting, using the GraphPad Program. The EC50-value of a compound is the effective dose showing 50% of maximal effect. For mean curves the response to the agonist with the highest potency was normalised to 100%. For antagonist responses the IC50-value was calculated using non-linear regression. […]

NK2 = target: T2, NK2 (Homo sapiens, UniProt P21452); assay: Signal transduction (ST), intracellular Ca++ (FLIPR), NK2; format: cell-based; details: antagonist, Ca++ transient peak, read-out: pIC50 NK2 (converted)
T2 sequence (P21452 1-398): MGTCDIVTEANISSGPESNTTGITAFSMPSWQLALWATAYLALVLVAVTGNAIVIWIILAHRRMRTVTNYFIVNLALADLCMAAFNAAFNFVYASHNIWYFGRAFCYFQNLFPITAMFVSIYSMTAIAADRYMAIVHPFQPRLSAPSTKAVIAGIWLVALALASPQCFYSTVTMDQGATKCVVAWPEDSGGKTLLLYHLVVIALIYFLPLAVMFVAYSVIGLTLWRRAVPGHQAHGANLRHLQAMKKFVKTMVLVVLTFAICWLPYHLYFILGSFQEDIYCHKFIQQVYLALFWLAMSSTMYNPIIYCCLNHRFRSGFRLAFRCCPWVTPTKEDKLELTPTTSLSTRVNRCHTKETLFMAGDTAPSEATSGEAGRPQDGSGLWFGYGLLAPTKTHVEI

SMILES	IC50 (NK3) [µM]	IC50 (NK1) [µM]	melting point [°C]	IC50 (NK2) [µM]
O=C(C1CC1)N1CCC2(CC1)CCN(C1CCN(C(=O)c3cc(C(F)(F)F)cc(C(F)(F)F)c3)C(Cc3ccccc3)C1)C2 (stereo not drawn) [Compound 6]	> 10	0.0537	160	
O=C(c1ccoc1)N1CCC2(CCN(C3CCN(C(=O)c4cc(C(F)(F)F)cc(C(F)(F)F)c4)C(Cc4ccccc4)C3)CC2)C1 (stereo not drawn) [Compound 7]	3.31	0.178		7.59
O=C(c1ccoc1)N1CCC2(CCN([C@H]3CCN(C(=O)c4cc(C(F)(F)F)cc(C(F)(F)F)c4)[C@H](Cc4ccccc4)C3)CC2)C1 [Compound 8]	0.977	0.117		> 10
O=C(c1cc(C(F)(F)F)cc(C(F)(F)F)c1)N1CCC(N2CCC3(CC2)CCN(S(=O)(=O)c2cccs2)C3)CC1Cc1ccccc1 (stereo not drawn) [Compound 9]	> 10	0.234		9.55
O=C(C1CCOC1)N1CCC2(CCN([C@@H]3CCN(C(=O)c4cc(C(F)(F)F)cc(C(F)(F)F)c4)[C@H](Cc4ccccc4)C3)CC2)C1 (stereo partly drawn) [Compound 11]	6.92	0.282		> 10
O=C(c1ccccc1Cl)N1CCC2(CCN([C@H]3CCN(C(=O)c4cc(C(F)(F)F)cc(C(F)(F)F)c4)[C@H](Cc4ccccc4)C3)CC2)C1 [Compound 13]	4.27	0.0759		5.13
O=C1CC2(CCN([C@H]3CCN(C(=O)c4cc(C(F)(F)F)cc(C(F)(F)F)c4)[C@H](Cc4ccccc4)C3)CC2)CN1 [Compound 21]	> 10	0.347	152	> 10
O=C1CC2(CCN([C@H]3CCN(C(=O)c4cc(C(F)(F)F)cc(C(F)(F)F)c4)[C@H](Cc4ccccc4)C3)CC2)CN1CC1CC1 [Compound 23]	> 10	0.0692		4.37
O=C1CC2(CCN([C@@H]3CCN(C(=O)c4cc(C(F)(F)F)cc(C(F)(F)F)c4)[C@H](Cc4ccccc4)C3)CC2)CN1CC1CC1 [Compound 24]	5.25	0.126		2.04
O=C1CC2(CCN(C3CCN(C(=O)c4cc(C(F)(F)F)cc(C(F)(F)F)c4)C(Cc4ccccc4)C3)CC2)CN1CC1CCCO1 (stereo not drawn) [Compound 25]	6.92	0.0316		5.5
O=C1CC2(CCN([C@H]3CCN(C(=O)c4cc(C(F)(F)F)cc(C(F)(F)F)c4)[C@H](Cc4ccccc4)C3)CC2)CN1Cc1ccoc1 [Compound 26]	> 10	0.0537		3.98
O=C1CC2(CCN([C@@H]3CCN(C(=O)c4cc(C(F)(F)F)cc(C(F)(F)F)c4)[C@H](Cc4ccccc4)C3)CC2)CN1Cc1ccoc1 [Compound 27]	8.13	0.117		1.91
Cc1ccccc1CN1CC2(CCN([C@H]3CCN(C(=O)c4cc(C(F)(F)F)cc(C(F)(F)F)c4)[C@H](Cc4ccccc4)C3)CC2)CC1=O [Compound 28]	10.2	0.145		7.59
O=C1CC2(CCN([C@H]3CCN(C(=O)c4cc(C(F)(F)F)cc(C(F)(F)F)c4)[C@H](Cc4ccccc4)C3)CC2)CN1Cc1ccsc1 [Compound 29]	> 10	0.102		5.25
O=C1CC2(CCN([C@@H]3CCN(C(=O)c4cc(C(F)(F)F)cc(C(F)(F)F)c4)[C@H](Cc4ccccc4)C3)CC2)CN1Cc1ccsc1 [Compound 30]	> 10	0.302		0.813
O=C1CC2(CCN([C@@H]3CCN(C(=O)c4cc(C(F)(F)F)cc(C(F)(F)F)c4)[C@H](Cc4ccccc4)C3)CC2)CN1Cc1ccccc1 [Compound 31]	11	0.0724		2.24
Cc1ccccc1CN1CC2(CCN([C@@H]3CCN(C(=O)c4cc(C(F)(F)F)cc(C(F)(F)F)c4)[C@H](Cc4ccccc4)C3)CC2)CC1=O [Compound 32]	8.32	0.269		10.5
O=C1CC2(CCN([C@@H]3CCN(C(=O)c4cc(C(F)(F)F)cc(C(F)(F)F)c4)[C@H](Cc4ccccc4)C3)CC2)CN1Cc1ccccc1F [Compound 33]	9.12	0.191		9.55
O=C1CC2(CCN([C@H]3CCN(C(=O)c4cc(C(F)(F)F)cc(C(F)(F)F)c4)[C@H](Cc4ccccc4)C3)CC2)CN1Cc1ccccc1Cl [Compound 34]	> 10	0.0692		4.47
O=C1CC2(CCN([C@@H]3CCN(C(=O)c4cc(C(F)(F)F)cc(C(F)(F)F)c4)[C@H](Cc4ccccc4)C3)CC2)CN1Cc1ccccc1Cl [Compound 35]	9.55	0.182		9.12
O=C(C1CC1)N1CC2(CCN([C@H]3CCN(C(=O)c4cc(C(F)(F)F)cc(C(F)(F)F)c4)[C@H](Cc4ccccc4)C3)CC2)c2ccccc21 [Compound 37]	6.76	0.302		> 10
CS(=O)(=O)N1CC2(CCN([C@H]3CCN(C(=O)c4cc(C(F)(F)F)cc(C(F)(F)F)c4)[C@H](Cc4ccccc4)C3)CC2)c2ccccc21 [Compound 39]	> 10	0.135		> 10
O=C(c1cc(C(F)(F)F)cc(C(F)(F)F)c1)N1CC[C@H](N2CCCC3(CCCN3C(=O)C3CC3)C2)C[C@H]1Cc1ccccc1 (stereo partly drawn) [Compound 46]		0.204		2.04
O=C(c1cc(C(F)(F)F)cc(C(F)(F)F)c1)N1CC[C@H](N2CCCC3(CCCN3C(=O)c3ccoc3)C2)C[C@H]1Cc1ccccc1 (stereo partly drawn) [Compound 48]	> 10	0.234		3.63
